Like-named read-outs stand apart in the source and are kept apart here.
How the values were obtained:
Type in all cases: cell-based
[1] = test system: SW-480 (human colon cancer cells); assay: MTT inhibition of tumor cell growth, SW-480; conditions: Homo sapiens, SW480, 48 h
Procedure, shortened: (§1)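 IC50 values derive from a 5-concentration re-screen following a 40 μM primary test, with 48 h treatment and MTT colorimetry at 595 nm.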

[2] = test system: SMMC-7721 (human hepatoma cells); assay: MTT inhibition of tumor cell growth, SMMC-7721; conditions: Homo sapiens, SMMC-7721, 48 h
Procedure, shortened: as §1

[3] = test system: MCF-7 (human breast cancer cells); assay: MTT inhibition of tumor cell growth, MCF-7; conditions: Homo sapiens, MCF7, 48 h
Procedure, shortened: as §1

[4] = test system: Wnt signaling pathway (Top-Flash reporter gene); assay: Top-Flash Wnt reporter gene assay in HEK293T cells with Wnt3a conditioned medium
Procedure, shortened: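 HEK293T transfected with TOP-flash (5 ng/well) plus GFP plasmid for normalization, then treated 6 h with mouse Wnt3a conditioned medium from L cells, with or without compound. GFP-normalized luciferase minus DMSO-only background, scaled to Wnt-induced activity; IC50 at 0.5 relative residual activity from 4-parameter logistic fit.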

[5] = test system: HL-60 (human promyelocytic leukemia cells); assay: MTT inhibition of tumor cell growth, HL-60; conditions: Homo sapiens, HL-60, 48 h
Procedure, shortened: as §1

[6] = Table 1, 7-hydroxy derivatives of S-3
[7] = Table 2, derivatives having potential Michael reaction acceptor
[8] = Table 3, single Michael reaction acceptor, modified lactonic ring
[9] = Table 4, derivatives obtained by reduction of the lactonic ring
[10] = Table 5, derivatives having double Michael reaction acceptor
[11] = Table 7 (first), alkaloid derivatives

SMILES: C=C1C(=O)[C@]23CC[C@H]1CC2[C@@]12CCC[C@@](C)(COC1=O)C2C[C@H]3O (some centres unmarked) [Compound 1, 15-oxospiramilactone]
- IC50 ([1]; Table 1, 7-hydroxy derivatives of S-3, read-out: IC50 SW-480): 3.58 µM
- IC50 ([1]; Table 2, derivatives having potential Michael reaction acceptor, read-out: IC50 SW-480): 3.58 µM
- IC50 ([1]; Table 3, single Michael reaction acceptor, modified lactonic ring, read-out: IC50 SW-480): 3.58 µM
- IC50 ([1]; Table 4, derivatives obtained by reduction of the lactonic ring, read-out: IC50 SW-480): 3.58 µM
- IC50 ([1]; Table 5, derivatives having double Michael reaction acceptor, read-out: IC50 SW-480): 3.58 µM
- IC50 ([1]; Table 6, 7-hydroxyl derivatives and controls, read-out: IC50 SW-480, 7-hydroxyl derivatives): 2.99 µM
- IC50 ([1]; Table 7 (first), alkaloid derivatives, read-out: IC50 SW-480): 3.58 µM
- IC50 [2, 6]: 3.96 µM
- IC50 [2, 7]: 3.96 µM
- IC50 [2, 8]: 3.96 µM
- IC50 [2, 9]: 3.96 µM
- IC50 [2, 10]: 3.96 µM
- IC50 [2, 11]: 3.96 µM
- IC50 [3, 6]: 3.25 µM
- IC50 [3, 7]: 3.25 µM
- IC50 [3, 8]: 3.25 µM
- IC50 [3, 9]: 3.25 µM
- IC50 [3, 10]: 3.25 µM
- IC50 [3, 11]: 3.25 µM
- IC50 ([4]; Homo sapiens, HEK-293T, 6 h, Table 7 (second), derivatives modified on 7-hydroxyl of S-3, HEK293T, Wnt3a conditioned medium, 6 h, read-out: IC50 (μM), inhibitory activity on the Wnt signaling pathway): 18.4 ± 1.82 µM
- IC50 ([4]; Homo sapiens, HEK-293T, 6 h, Table 8, HEK293T, Wnt3a conditioned medium, 6 h, read-out: IC50 (μM), inhibitory activity on the Wnt signaling pathway): 18.7 ± 0.58 µM
- IC50 ([4]; Homo sapiens, HEK-293T, 6 h, Table 9, HEK293T, Wnt3a conditioned medium, 6 h, read-out: IC50(μM), inhibitory activity on the Wnt signaling pathway): 18 ± 0.28 µM
- IC50 ([4]; Homo sapiens, HEK-293T, 6 h, Table 10, HEK293T, Wnt3a conditioned medium, 6 h, read-out: IC50 (μM), inhibitory activity on the Wnt signaling pathway): 13.9 ± 2.01 µM
- IC50 ([4]; Homo sapiens, HEK-293T, 6 h, Table 11, HEK293T, Wnt3a conditioned medium, 6 h, read-out: IC50 (μM), inhibitory activity on the Wnt signaling pathway): 22.5 ± 0.56 µM
- IC50 ([4]; Homo sapiens, HEK-293T, footnotes of Tables 8 and 9: S-3 control in the run of the compounds marked a or b, read-out: corresponding IC50 value of S-3 (Wnt signaling pathway)): 18.4 µM
- IC50 ([4]; footnotes of Tables 8 and 9: S-3 control in the run of the compounds marked a or b, listed as S-3, read-out: corresponding IC50 value of S-3 (Wnt signaling pathway)): 15.3 µM
- IC50 [5, 6]: 6.36 µM
- IC50 [5, 7]: 6.36 µM
- IC50 [5, 8]: 6.36 µM
- IC50 [5, 9]: 6.36 µM
- IC50 [5, 10]: 6.36 µM
- IC50 [5, 11]: 6.36 µM
